# Where a SMILES comes first, the peptide text is derived from it.
# Columns and labels:
# [1] = biological target: T1, Group IIA purified human synovial sPLA2 (Homo sapiens, UniProt P14555); experiment: In vitro inhibition of purified human synovial sPLA2, 3H-labelled E. coli membranes; format: biochemical; conditions: for inhibition at 5 µM / Mean % Inhibition: fixed peptide concentration 5 μM
# T1 construct: purchased Cayman, USA
# T1 sequence (P14555 21-144): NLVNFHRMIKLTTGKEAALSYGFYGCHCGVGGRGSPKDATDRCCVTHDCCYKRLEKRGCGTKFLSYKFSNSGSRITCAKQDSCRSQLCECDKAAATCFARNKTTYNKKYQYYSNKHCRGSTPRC
# sPLA2 = experiment: Inhibition of sPLA2 activity at fixed concentrations; format: biochemical
# [2] = tested on: mammalian (human and rat) type IIA sPLA2; format: binding
# [3] = tested on: Tg197 transgenic mice (chronic inflammatory polyarthritis); experiment: Tg197 transgenic mouse arthritis model, experiment 2 (4 weeks, time course); format: in vivo
# Protocol: In experiment 2, mice were divided into 6 groups (A–F), and were injected i.p with 3 weekly doses (150 μg peptide in 50 μL DMSO per dose) of either the test peptide P-NT.II or the control peptide with the scrambled sequence for 4 consecutive weeks. Tg197 mice in Group B (n=18) were further divided into 4 sub-groups (B1, B2, B3, B4). At the end of 1st week, four Tg197 mice from Group B (sub-group B1) were sacrificed and both hind legs taken for histological processing and scorings. The remaining Tg197 mice from the other sub-groups B were continued with 3 regular doses of injections per week, and four Tg197 mice from each sub-group B2 and B3, were sacrificed at the end of 2nd and 3rd weeks, respectively. At the end of 4th week, all remaining Tg197 mice ([…]) were sacrificed for collection of joint specimens.
# Disease monitoring was done by gross observations based on body weight measurements and arthritis scoring, which were done twice weekly after treatment until all the animals were sacrificed at 5th week in experiment 1, or at 4th week in experiment 2. Arthritis score (AS) was recorded on both ankle joints, and average scores as shown below were taken: • 0=no arthritis (normal appearance and flexion); • 0.5=onset of arthritis (mild joint swelling); • 1.0=mild arthritis (joint distortion); • 1.5=as above+finger deformation, less strength on flexion; • […]=moderate arthritis (severe swelling, joint deformation, no strength on flexion); • 2.5=as above+finger deformation in paws; • 3.0=heavy arthritis (ankylosis detected on flexion and severely impaired movement).
# For histopathological scoring, both hind legs were dissected and fixed in 10% formaldehyde overnight, decalcified in citrate-buffered formic acid for 3 days at 4° C., and processed for light microscopy (LM). • Histopathological score (HS) was evaluated as follows: • 0=no detectable pathology, • 1=hyperplasia of the synovial membrane and presence of polymorphonuclear infiltrates • 2=pannus and fibrous tissue formation and focal subchondrial bone erosion • 3=articular cartilage destruction and bone erosion • 4=articular cartilage destruction and extensive bone erosion.
# Transmission electron microscopy (TEM): Ankle joints dissected from the left hind leg of each mouse were split open longitudinally through the midline between the tibia and the talus, prefixed overnight with 2.5% glutaraldehyde in phosphate buffer, pH 7.4 (PB) and rinsed with PB. After fixing with 1% osmium tetroxide in PB for 2 h, they were dehydrated in a graded series of ethanol and processed into Araldite. Semi-thin sections (1.0μ) were cut and stained with methylene blue to observe the orientation and for histopathological scorings under the light microscope. Ultra-thin sections (80–90 nm) were then cut with an ultramicrotome (Riechert-Jung Ultracut E), mounted on copper grids, counterstained with uranyl acetate and lead citrate, and evaluated under electron microscope (CM120 Biotwin, FEI Company).
# Anti-inflammatory activity of the candidate peptide P-NT.II was examined as a new treatment option for modulating rheumatoid arthritis (RA) in a transgenic animal model. To evaluate the potential effectiveness of the peptide as prophylaxis against RA, two separate experiments were performed in 4 week-old transgenic (Tg197) mice and non-transgenic wild-type (wt) mice. These transgenic mice (Tg197) express human tumor necrosis factor (TNFα), a cytokine which has been implicated in the pathogenesis of human RA.
# [4] = biological target: T2, 100-kDa human recombinant cytosolic form of PLA2 (cPLA2) (Homo sapiens, UniProt P47712); experiment: PLA2 inhibition, E. coli membrane assay, cPLA2; format: biochemical
# T2 sequence (P47712 1-749): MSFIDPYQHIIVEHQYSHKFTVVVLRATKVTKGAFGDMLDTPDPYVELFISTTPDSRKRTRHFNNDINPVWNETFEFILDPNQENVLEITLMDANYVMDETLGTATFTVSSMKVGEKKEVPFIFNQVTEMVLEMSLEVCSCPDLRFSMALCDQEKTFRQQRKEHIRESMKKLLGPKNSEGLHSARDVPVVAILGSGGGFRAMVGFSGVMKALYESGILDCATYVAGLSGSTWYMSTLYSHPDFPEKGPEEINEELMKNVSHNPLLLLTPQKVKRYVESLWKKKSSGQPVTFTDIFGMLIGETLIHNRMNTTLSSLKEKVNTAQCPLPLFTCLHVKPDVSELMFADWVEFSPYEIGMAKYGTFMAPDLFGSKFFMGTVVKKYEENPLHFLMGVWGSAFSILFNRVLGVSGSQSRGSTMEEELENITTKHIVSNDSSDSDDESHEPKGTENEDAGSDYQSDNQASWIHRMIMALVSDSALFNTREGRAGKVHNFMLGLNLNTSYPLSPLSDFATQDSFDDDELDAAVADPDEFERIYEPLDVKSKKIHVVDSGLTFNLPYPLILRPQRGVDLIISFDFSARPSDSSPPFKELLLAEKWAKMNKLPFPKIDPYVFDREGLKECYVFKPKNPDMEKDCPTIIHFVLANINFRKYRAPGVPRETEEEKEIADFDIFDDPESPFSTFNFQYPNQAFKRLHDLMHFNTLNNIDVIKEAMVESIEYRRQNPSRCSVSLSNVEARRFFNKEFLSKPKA
# serum sPLA2 = experiment: Serum sPLA2 levels in Tg197 mice, E. coli membrane assay; format: in vivo, mouse; conditions: 3–4 weeks post-treatment
# Protocol: Serum of transgenic (Tg197) mice and non-transgenic wild type controls were measured for sPLA2 using an Escherichia coli (E. coli) membrane assay as described previously [Eur J Biochem 2002, 269:719–727]. In brief, [^3H] arachidonate-labeled E. coli membrane suspension (5.8 μCi/μmol, Perkin Elmer, USA) was used as substrate, and 25 mM CaCl2-100 mM Tris-HCl (pH 7.5) as assay buffer. The reaction mixture containing substrate (20 μl), and either purified human synovial sPLA2 standard (1–80 ng/ml, Cayman, USA) or serum (10 μl) in a final volume of 250 μl in assay buffer was incubated at 37° C. for 1 h, and the reaction terminated with 750 μl of chilled PBS containing 1% BSA. 500 μl aliquots of the supernatant were then taken to measure the amount of [^3H] arachidonate released from the E. coli membrane using liquid scintillation counting (Beckman LS 6500 Scintillation Counter). The amount of sPLA2 present in the serum was calculated from the standard curve, and is expressed as ng/ml±SEM.
# FIG. 12 depicts time course of serum sPLA2 levels. Serum sPLA2 levels were measured with an E. coli membrane assay in blood samples collected from untreated, P-NT.I- and scrambled P-NT.II-treated Tg197 mice at weekly intervals. Values are the mean±SD (n=4/group). […]
# [5] = biological target: snake venom PLA2 (crotoxin B) (Crotalus durissus terrificus, UniProt P0CAS2); experiment: biochemical; conditions: IC50
# [6] = 3H-labelled E. coli membranes as substrate
# [7] = purified human synovial sPLA2 (Cayman)
# Sequence of snake venom PLA2 (crotoxin B) (P0CAS2 whole entry, looked up): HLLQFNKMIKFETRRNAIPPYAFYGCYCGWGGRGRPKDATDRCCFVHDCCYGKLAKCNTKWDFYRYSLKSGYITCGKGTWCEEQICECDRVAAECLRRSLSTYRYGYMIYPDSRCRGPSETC
molecule,measurement,setting,value
"CC[C@H](C)[C@H](NC(=O)[C@H](CCC(=O)O)NC(=O)[C@@H](N)C(C)C)C(=O)N[C@@H](Cc1c[nH]cn1)C(=O)N[C@H](C(=O)N[C@@H](Cc1c[nH]c2ccccc12)C(=O)N[C@@H](CCC(=O)O)C(=O)NCC(=O)N[C@H](C(=O)O)C(C)C)C(C)C [D60, 65E-PIP (59–67)] (H-VEIHVWEGV-OH; N-terminus and C-terminus assumed)",IC50,[1]; [6],4.2 µM
CC[C@H](C)[C@H](NC(=O)[C@H](CC(=O)O)NC(=O)[C@@H](N)C(C)C)C(=O)N[C@@H](Cc1cnc[nH]1)C(=O)N[C@H](C(=O)N[C@@H](Cc1c[nH]c2ccccc12)C(=O)N[C@@H](C)C(=O)NCC(=O)N[C@H](C(=O)O)C(C)C)C(C)C [D65A-PIP (59–67)] (H-VDIHVWAGV-OH),IC50,[1]; [6],5.45 µM
CC[C@H](C)[C@H](NC(=O)[C@H](CC(=O)O)NC(=O)[C@@H](N)C(C)C)C(=O)N[C@@H](Cc1cnc[nH]1)C(=O)N[C@H](C(=O)N[C@@H](Cc1c[nH]c2ccccc12)C(=O)N[C@@H](CCC(=O)O)C(=O)NCC(=O)N[C@H](C(=O)O)C(C)C)C(C)C [D65E-PIP (59–67)] (H-VDIHVWEGV-OH),IC50,[1]; [6],4.95 µM
CC[C@H](C)[C@H](NC(=O)[C@H](CC(=O)O)NC(=O)[C@@H](N)C(C)C)C(=O)N[C@@H](Cc1cnc[nH]1)C(=O)N[C@H](C(=O)N[C@@H](Cc1c[nH]c2ccccc12)C(=O)N[C@@H](CO)C(=O)NCC(=O)N[C@H](C(=O)O)C(C)C)C(C)C [D65S-PIP (59–67)] (H-VDIHVWSGV-OH),IC50,[1]; [6],5.25 µM
CC[C@H](C)[C@H](NC(=O)[C@H](CC(=O)O)NC(=O)[C@@H](NC(=O)[C@@H](N)CCCNC(=N)N)C(C)C)C(=O)N[C@@H](Cc1c[nH]cn1)C(=O)N[C@H](C(=O)N[C@@H](Cc1c[nH]c2ccccc12)C(=O)N[C@@H](CC(=O)O)C(=O)NCC(=O)N[C@H](C(=O)O)C(C)C)C(C)C [PIP (58–67)] (H-RVDIHVWDGV-OH; N-terminus and C-terminus assumed),IC50,[1]; [6],3.67 µM
same,inhibition at 5 µM,[1],59.5%
"CC[C@H](C)[C@H](NC(=O)[C@H](CC(=O)O)NC(=O)[C@@H](N)C(C)C)C(=O)N[C@@H](Cc1cnc[nH]1)C(=O)N[C@H](C(=O)N[C@@H](Cc1c[nH]c2ccccc12)C(=O)N[C@@H](CC(=O)O)C(=O)NCC(=O)N[C@H](C(=O)N[C@H](C(=O)N[C@@H](CC(=O)O)C(=O)N[C@H](C(=O)N[C@@H](Cc1cnc[nH]1)C(=O)N[C@H](C(=O)N[C@@H](Cc1c[nH]c2ccccc12)C(=O)N[C@@H](CC(=O)O)C(=O)NCC(=O)N[C@H](C(=O)O)C(C)C)C(C)C)[C@@H](C)CC)C(C)C)C(C)C)C(C)C [PIP (59–67) dimer, VDIHVWDGV VDIHVWDGV] (H-VDIHVWDGVVDIHVWDGV-OH)",IC50,[1]; [7],1.19 µM
CC[C@H](C)[C@H](NC(=O)[C@H](CC(=O)O)NC(=O)[C@@H](N)C(C)C)C(=O)N[C@@H](Cc1c[nH]cn1)C(=O)N[C@H](C(=O)N[C@@H](Cc1c[nH]c2ccccc12)C(=O)N[C@@H](CC(=O)O)C(=O)NCC(=O)N[C@H](C(=O)O)C(C)C)C(C)C [PIP (59–67)] (H-VDIHVWDGV-OH; N-terminus and C-terminus assumed),IC50,[1]; [7],3.8 µM
CC[C@H](C)[C@H](NC(=O)[C@@H](N)CC(=O)O)C(=O)N[C@@H](Cc1c[nH]cn1)C(=O)N[C@H](C(=O)N[C@@H](Cc1c[nH]c2ccccc12)C(=O)N[C@@H](CC(=O)O)C(=O)NCC(=O)N[C@H](C(=O)O)C(C)C)C(C)C [PIP (60–67)] (H-DIHVWDGV-OH; N-terminus and C-terminus assumed),IC50,[1]; [6],5.75 µM
same,inhibition at 5 µM,[1],45.9%
"CC[C@H](C)[C@H](NC(=O)[C@H](CC(=O)O)NC(=O)[C@@H](NC(=O)[C@H](CCCNC(=N)N)NC(=O)[C@H](CCCNC(=N)N)NC(=O)[C@@H](N)Cc1ccc(O)cc1)C(C)C)C(=O)NCC(=O)N[C@@H](CC(C)C)C(=O)N[C@@H](CCCNC(=N)N)C(=O)N[C@H](C(=O)N[C@@H](Cc1c[nH]c2ccccc12)C(=O)N[C@@H](Cc1c[nH]cn1)C(=O)N[C@@H](CC(=O)O)C(=O)N[C@@H](CC(C)C)C(=O)NCC(=O)N[C@H](C(=O)NCC(=O)O)C(C)C)C(C)C [Scrambled P-NT.II, reference compound] (H-YRRVDIGLRVWHDLGVG-OH; N-terminus and C-terminus assumed)",inhibition of sPLA2,sPLA2,failed to inhibit
same,competition with labeled P-NT.II for binding to type IIA sPLA2,[2],failed to block
same,ultrastructural features of the articular chondrocytes (TEM),[3]; 1–4 weeks post-treatment,more or less similar to those described for untreated Tg197 mice
same,"% of total at indicated HS scores, HS 2",[3]; 4 wk treatment,16.7%
same,"% of total at indicated HS scores, HS 3",[3]; 4 wk treatment,83.3%
same,"% of total at indicated HS scores, HS 4",[3]; 4 wk treatment,0%
same,Mean HS ± SEM,[3]; 4 wk treatment,3.25 ± 0.17
same,inhibition of cPLA2,[4],failed to inhibit
same,circulating sPLA2 compared with untreated mice,serum sPLA2,not significantly different
same,IC50,[5],> 250 µM
DIHVWDG [PIP (60–66)],Mean % Inhibition,[1],n.s.
GRVDIHVWDGV [PIP (57–67)],Mean % Inhibition,[1],14.22%
HVWDG [PIP (62–66)],Mean % Inhibition,[1],n.s.
IHVWDG [PIP (61–66)],Mean % Inhibition,[1],n.s.
IHVWDGV [PIP (61–67)],Mean % Inhibition,[1],n.s.
LGRVDIHVWDGV [PIP (56–67)],Mean % Inhibition,[1],34.21%

# From US7176281B2 (priority 2003, dated 2007)
